In PubChem BioAssay AID2253 (Southern Research Specialized Biocontainment Screening …, 2010):
Values joined by “and” are separate entries in the source; they are usually repeats but may differ in a detail not shown here. Equal values may be shown once.

Test system: THP-1 viability, CellTiter-Glo luminescence, 72 h
Test: human monocytic cell viability reduction – S. typhimurium screen hits, cytotoxicity control for Salmonella PhoP regulon inhibitors, dose response (AID 2253)

| SMILES | EC50 |
| --- | --- |
| Cc1ccc(C)c(-c2nc3ccc(N)cc3[nH]2)c1 | 10.5 µM |
| O=C(C[n+]1cc(-c2ccc(Cl)cc2)n2c1CCC2)Nc1nc(-c2ccccc2)cs1 | 43.3 µM |
| CN1CCN(C(c2ccccn2)c2cc(Cl)c3cccnc3c2O)CC1 (stereo unspecified) | 9.2 µM |
| O=C(N/N=C/c1cc2c3c(c1O)CCCN3CCC2)c1ccccc1O | 3.56 µM |
| CN1C(=O)/C(=C/c2cccn2-c2ccc3ccccc3c2)C(=O)NC1=S | 16.6 µM |
| CSc1ccc(C(=O)/C=C/c2ccc(N)cc2)cc1 | 21.7 µM |
| CC1=C(C(=O)OCC2CCCO2)C(c2cccc(C(F)(F)F)c2)C2=C(CC(c3ccco3)CC2=O)N1 (stereo unspecified) | 42.7 µM |
| COc1ccc(-c2c/c(=N\c3nc(-c4ccccc4)c(C)s3)c3ccccc3o2)cc1O | 2.36 µM |
| CCCc1nc2c(=O)n(C)c(=O)nc-2n(C)n1 | 2.36 µM |
| CCCCCCCOC(=O)C[N+](C)(C)CCOC1CC2CCC1(C)C2(C)C (stereo unspecified) | 2.07 µM |
| Cc1cccc(N2CCc3c2nc2ccccc2c3N)c1 | 47.6 µM |
| O=C(NNc1c2ccccc2nc2ccccc12)c1ccccc1O | 28.3 µM |
| Cc1ccc(C[n+]2cc(-c3ccc(Cl)cc3)n3c2CCC3)cc1 | 12 µM |
| S=C(NCc1ccncc1)Nc1ccc(Cl)c(Cl)c1 | 46.2 µM |
| Cc1ccc2cccnc2c1NC(=S)NC(=O)c1ccccc1 | 25.2 µM |
| COc1ccc(Nc2cc(C)nc(NCc3ccccc3)n2)cc1 | 10.1 µM |
| CCCCCC(CC(=O)NO)C(=O)NC(C(=O)N1CCCC1CO)C(C)C (stereo unspecified) | 36.2 µM |
| CCN(CC)c1ccc(S(=O)(=O)Nc2cc(Cl)ccc2Cl)cc1NC(=S)NC(=O)C1CCCC1 | 40 µM |
| COc1ccc(-c2csc(NCc3ccco3)n2)cc1 | 38.5 µM |
| CCCCCCCCCCOC(=O)Cn1c(COc2ccc(OC)cc2)[n+](C)c2ccccc21 | 3.17 µM and 2.22 µM |
| C#CCOCCOCCOCCNc1nc(N2CCN(C(=O)CCCCCCCCCCNC(=O)[C@H](CCCCN)n3cc(C[C@@H](C)CC)nn3)CC2)nc(N2CCN(C(=O)CCCCCCCCCCNC(=O)[C@H](CCCN=C(N)N)n3cc(C[C@@H](C)CC)nn3)CC2)n1 | 3.88 µM |
| Oc1cccc(/C=N/Nc2ccc(Cl)nn2)c1O | 0.66 µM |
| O=c1[nH][nH]c(-c2ccccc2O)c1C(C[N+](=O)[O-])c1ccc(Br)cc1 (stereo unspecified) | 16 µM |
| CNc1nc(NCc2ccccc2)c2ccccc2n1 | 10 µM |

| SMILES | EC50 |
| --- | --- |
| CCCCCCCCCCOC(=O)Cn1c(COc2ccccc2OC)[n+](C)c2ccccc21 | 2.2 µM |
| O=C1C2=C(NC(=S)NC2c2ccc(Cl)cc2)NC(c2ccc(Cl)cc2)N1c1ccc(Cl)cc1 (stereo unspecified) | 11.3 µM |
| O=c1cc2oc3cc(O)c(O)cc3c(-c3ccccc3[N+](=O)[O-])c-2cc1O | 10.5 µM |
| NC1=NC(=Nc2cccc(Cl)c2)c2ccccc21 | 32.4 µM |
| Cc1ccccc1-n1nnnc1Sc1nnnn1-c1ccccc1 | 12 µM |
| CCOC(=O)Cc1csc(NC(=O)NC2(C(F)(F)F)Oc3cc(Cl)c(Cl)cc3O2)n1 | 26 µM |
| Cc1nnc(N/N=C/c2ccccn2)[nH]c1=O | 0.81 µM |
| Cc1ccc([N+](=O)[O-])cc1-c1ccc(/C=C(\C#N)c2[nH]nc(N)c2C#N)o1 | 5.93 µM |
| CCN1/C(=C/C=C/c2sc3ccccc3[n+]2CC)Sc2ccccc21 | 0.43 µM |
| COc1ccc(Nc2sc(C(=O)Nc3cccc(Cl)c3)c(N)c2C(=O)Nc2ccccc2OC)cc1 | 25.7 µM |
| O=C(N/N=C/c1cc(Cl)ccc1O)c1ccncc1 | 5.12 µM |
| COc1ccc(C(=O)On2c(-c3ccc(Br)cc3)nc3ccccc3c2=O)cc1 | 12.8 µM |
| CC(=O)NC(c1ccc(Cl)cc1Cl)c1ccc2cccnc2c1O (stereo unspecified) | 0.28 µM |
| CCOc1cccc(CNc2ccc(O)cc2)c1OCc1ccc(Cl)cc1Cl | 26.9 µM |
| CCCCCCCCCCCCCCCC[N+](C)(C)CC | 0.7 µM |
| Oc1c(C(c2ccccn2)N2CCOCC2)ccc2cccnc12 (stereo unspecified) | 13.8 µM |
| O=C(Nc1cccc(Cl)c1)Nc1ccc2c(c1)OCO2 | 36.8 µM |
| COc1cc(NC(=O)Nc2cccc(Cl)c2)c(OC)cc1NC(=O)CN1CCCCC1 | 15.5 µM |
| O=C(NCCNc1ccc([N+](=O)[O-])cc1C(F)(F)F)c1cccc(F)c1 | 47.5 µM |
| Cc1ccc(S(=O)(=O)c2c(C(=O)c3ccccc3)cnc3cc4c(cc23)OCCO4)cc1 | 30.2 µM |
| CN(C)c1ccc(O)c2c1CC1CC3C(N(C)C)C(=O)C(C(N)=O)=C(O)[C@@]3(O)C(=O)C1=C2O (stereo partly specified) | 36.6 µM |
| NC1=NC(=Nc2ccc(Br)cc2)c2ccccc21 | 25.8 µM |
| Clc1c(OCCCn2ccnc2)ccc2ccccc12 | 35.2 µM |
| N/C(=N/OC(=O)c1ccccc1Cl)c1ncc([N+](=O)[O-])s1 | 18.8 µM |

| SMILES | EC50 |
| --- | --- |
| c1ccc(C2CNCc3c2ccc2ccccc32)cc1 (stereo unspecified) | 11 µM |
| COc1ccc(/C=N/Nc2cc(C)nc3ccccc23)cc1 | 7.59 µM |
| O=C(Cc1ccccc1)Nc1cccc(N2C(=O)C=CC2=O)c1 | 16.1 µM |
| Cc1ccc(O)c(-c2cc(-c3cccc(F)c3)n[nH]2)c1 | 18.2 µM |
| O=Nc1ccc(O)c2ncccc12 | 1.77 µM |
| CC(C)NC1=C(Cl)C(=O)c2ccccc2C1=O | 18.9 µM |
| Cc1ccc(O)c(-c2cc(-c3ccccc3C)[nH]n2)c1 | 19.9 µM |
| CCCCCOc1ccc(CSC(=N)N)cc1[N+](=O)[O-] | 7.91 µM |
| CCc1ccc2[nH]c(=O)c(CN(Cc3ccccc3)C(=O)Nc3ccccc3OC)cc2c1 | 43.1 µM |
| CCCC(=O)NC(c1ccc(N(C)C)cc1)c1ccc2cccnc2c1O (stereo unspecified) | 0.61 µM |
| CCOC(=S)SCC(=O)Nc1nc(-c2ccccc2)cs1 | 4.91 µM |
| COc1ccccc1/C=C1\CCCC2=C1Nc1nnnn1C2c1ccccc1OC (stereo unspecified) | 19.6 µM |
| COc1ccccc1CNCC(O)Cn1c2ccccc2c2ccccc21 (stereo unspecified) | 8.21 µM |
| CCc1ccc(CNc2ccc(O)cc2)cc1 | 17.1 µM |
| COc1ccc(/C=C/C(=O)NC(=S)NNC(=O)c2cnccn2)cc1 | 2.02 µM |
| CCn1cc(C(=O)O)c(=O)c2cc(F)c(N3CCN(C(=S)NC(=O)c4c(OC)cccc4OC)CC3)cc21 | 43.5 µM |
| NCCCC[C@H]1CN=C(N)N1CCC12CC3CC(CC(C3)C1)C2 | 33.1 µM |
| O=C(c1ccc(F)cc1)C(CN1CCOCC1)c1ccccc1 (stereo unspecified) | 6.92 µM |
| CNc1cc(Cl)c2nonc2c1[N+](=O)[O-] | 3.65 µM |
| O=C1C(Nc2ccccc2)=C/C(=N/S(=O)(=O)c2cccs2)c2ccccc21 | 1.5 µM |
| C/C(=N\Nc1ncnc2sc(C)c(C)c12)c1ccccn1 | < 0.1 µM |
| Cc1[nH]c2ccccc2c1C(O)CN1CCN(c2cccc(C(F)(F)F)c2)CC1 (stereo unspecified) | 9.39 µM |
| FC(F)(F)c1ccc2c(c1)N(CCCN1CCN(CCCl)CC1)c1ccccc1S2 | 20.6 µM |
| Oc1ccc(NCc2ccccc2OCc2ccccc2F)cc1 | 19.9 µM |

| SMILES | EC50 |
| --- | --- |
| Nc1nonc1C(=O)N/N=C/c1cc(Br)ccc1O | 3.12 µM |
| COc1ccc(OC)c(C2C=C(C34CC5CC(CC(C5)C3)C4)NC(=S)N2)c1 (stereo unspecified) | 49.8 µM |
| Cc1ccc(C=Nc2ccccc2C(N)=O)s1 | 10.8 µM |
| CCCCCCCCCCCCCCCC[n+]1cccc(C(=O)N(CC)CC)c1 | 0.64 µM |
| CCCCCCCNC(=O)C1(CC2CC(c3cccc(Br)c3)=NO2)CCNCC1 (stereo unspecified) | 4.13 µM |
| N#CC(C#N)=c1ccc2c(c1)NC1(CCCCC1)N=2 | 4.08 µM |
| Cc1cc(/C=N/NC(=O)c2cccc([N+](=O)[O-])c2)c(C)n1-c1ccc(Cl)cc1Cl | 43.9 µM |
| CC(C)c1ccc(NC(=O)N(CCc2nc3ccccc3[nH]2)C2CCCC2)cc1 | 43.1 µM |
| Cn1c(=N)n(CC(=O)c2ccc(Br)s2)c2ccccc21 | 10.1 µM |
| O=C1c2[nH]nc(-c3ccccc3O)c2C(c2ccc(F)cc2)N1Cc1ccco1 (stereo unspecified) | 20 µM |
| CCCCCCCCCCCCCCCC[n+]1ccc(/C=N/O)cc1 | 0.37 µM |
| O=C(c1ccc(CSc2nc3ccncc3[nH]2)cc1)N1CCN(c2cccc(Cl)c2)CC1 | 15.3 µM |
| O=CN/N=C/c1c(O)ccc2ccccc12 | 5.18 µM |
| CSc1ccc2c(c1)C(N1CCN(C)CC1)Cc1ccccc1S2 (stereo unspecified) | 10.6 µM |
| CCn1c(SCc2nc3scc(-c4ccccc4)c3c(=O)[nH]2)nnc1-c1cccs1 | 46.6 µM |
| OC(COc1ccc2ccccc2c1Br)Cn1ccnc1 (stereo unspecified) | 43.9 µM |
| CCOc1ccc(/C=C/C(=O)Nc2ccc(OC)cc2[N+](=O)[O-])cc1 | 27.5 µM |
| Cc1ccc(S(=O)(=O)Nc2cc(Cl)c(O)c3ncccc23)cc1 | 1.55 µM |
| CCCCCCCCCCOC(=O)Cn1c(COc2ccccc2)[n+](C)c2ccccc21 | 8.34 µM |
| CCCCCc1ccc(OCCOCCn2c[n+](C)c3ccccc32)c(CCCCC)c1 | 1.35 µM |
| Oc1ccccc1Nc1nc(NCc2ccco2)c2ccccc2n1 | 13.2 µM |
| Cc1ccc(C=Nc2ccccc2C(N)=O)cc1 | 8.83 µM |
| Cc1cc2cc(CCNC(=O)c3cccs3)c(=O)[nH]c2cc1C | 17.2 µM |
| CCCCCN=C(N)N/N=C/c1c[nH]c2ccc(OC)cc12 | 1.58 µM |

| SMILES | EC50 |
| --- | --- |
| CC(C)CCNC(=S)Nc1ccc([N+](=O)[O-])cc1 | 16.5 µM |
| CC[n+]1c(/C=C/C=C/c2ccc(N(C)C)cc2)sc2ccccc21 | 1.5 µM |
| CC1CCC(C(C)C)C(OC(=O)Cn2c(-c3ccc(Cl)cc3)[n+](C)c3ccccc32)C1 (stereo unspecified) | 2.13 µM |
| NC(N)=N/N=C/c1ccc(OCc2ccc(Cl)cc2)cc1 | 2.91 µM |
| CCOC(=O)C(C)/C(C)=N/NC(=O)c1cc2ccccc2cc1O (stereo unspecified) | 6.99 µM |
| c1ccc2cc(CSCc3nc4ccccc4[nH]3)ccc2c1 | 42.6 µM |
| O=C(Nc1nnc(-c2cccs2)o1)c1cccc(Oc2ccccc2)c1 | 19.6 µM |
| O=C(NCCNc1ccc([N+](=O)[O-])cc1C(F)(F)F)c1ccc(F)cc1 | 43.7 µM |
| CCCCOc1ccc(Br)cc1CSC(=N)N | 5.78 µM |
| Cc1ccc(-c2csc(NC(=O)C[n+]3cc(-c4ccc(C)cc4)n4c3CCC4)n2)cc1 | 8.54 µM |
| Oc1c(CN2CCOCC2)cc(COCc2ccccc2)c2cccnc12 | 3.1 µM |
| Nc1c(Cl)ncnc1N/N=C/c1ccccn1 | 0.47 µM |
| CCCCCn1c(N)c(C(=O)NCc2cccs2)c2nc3ccccc3nc21 | 15.4 µM |
| COc1cccc(/C=N/n2c(C)nc3ccccc3c2=O)c1O | 27.7 µM |
| CC[n+]1c(/C=C/N(C)c2ccccc2)n(-c2ccccc2)c2ccc(-c3nc4ccccc4s3)cc21 | 0.46 µM |
| Cc1cccc(Nc2c3c(nc4ccccc24)CCC3)c1 | 9.08 µM |
| COc1ccccc1-c1c(C#N)c(N)nc2c1CCc1ccccc1-2 | 13.2 µM |
| c1cnc2c(c1)ccc1cccnc12 | 3.8 µM |
| COc1ccc(OCCSc2nnc3sc4ccccc4n23)cc1 | 44.1 µM |
| OC(c1cc(-c2ccc(C(F)(F)F)cc2)nc(C(F)(F)F)c1)C1CCCCN1 (stereo unspecified) | 6.15 µM |
